Results reported in the NIST ThermoML archive (doi:10.1021/je800637t).
± gives the expanded uncertainty stated by the source.

Experiments:
[1] = mn = molality of the nth substance listed, in mol/kg; details: 100.8 kPa, Liquid; for viscosity: Cone and plate viscometry; for electrical conductivity: Kyoto model CM-117 conductivity meter; for mass density: Vibrating tube method
[2] = refractive index (Na D-line) (dimensionless); mn = molality of the nth substance listed, in mol/kg; details: 100.8 kPa, Liquid, Standard Abbe refractometry

O=[N+]([O-])[O-].[K+] [potassium nitrate] + O
Details	electrical conductivity, [1] [S/m]	mass density, [1] [kg/m3]	refractive index, [2]	viscosity, [1] [mPa·s]
298.15 K, m1 = 0.3799	0.000381 ± 5e-06	1020.03 ± 0.09	1.33593 ± 0.0004	0.879 ± 0.008
298.15 K, m1 = 0.76	0.000705 ± 8e-06	1041.91 ± 0.06	1.33907 ± 0.0004	0.87 ± 0.011
298.15 K, m1 = 1.14	0.000985 ± 1.2e-05	1062.91 ± 0.08	1.34205 ± 0.0004	0.869 ± 0.008
298.15 K, m1 = 1.52	0.00122 ± 1.5e-05	1083.04 ± 0.12	1.34488 ± 0.0004	0.872 ± 0.012
298.15 K, m1 = 1.9	0.00144 ± 1.7e-05	1102.4 ± 0.12	1.34751 ± 0.0004	0.881 ± 0.008
298.15 K, m1 = 2.28	0.00162 ± 1.9e-05	1121.03 ± 0.09	1.35009 ± 0.0004	0.889 ± 0.008
298.15 K, m1 = 2.66	0.00179 ± 2.1e-05	1139.02 ± 0.1	1.35253 ± 0.0004	0.901 ± 0.011
298.15 K, m1 = 3.04	0.00194 ± 2.3e-05	1156.32 ± 0.13	1.35479 ± 0.0004	0.914 ± 0.014
298.15 K, m1 = 3.42	0.00211 ± 2.5e-05	1173.06 ± 0.12	1.35704 ± 0.0004	0.931 ± 0.008
298.15 K, m1 = 3.821	0.00223 ± 2.7e-05	1189.24 ± 0.13	1.35915 ± 0.0004	0.95 ± 0.009
313.15 K, m1 = 0.3799	0.000528 ± 6e-06	1014.52 ± 0.07	1.33384 ± 0.0004	0.652 ± 0.01
313.15 K, m1 = 0.76	0.000954 ± 1.1e-05	1035.85 ± 0.05	1.33687 ± 0.0004	0.654 ± 0.007
313.15 K, m1 = 1.14	0.00129 ± 1.5e-05	1056.36 ± 0.1	1.33975 ± 0.0004	0.657 ± 0.008
313.15 K, m1 = 1.52	0.00159 ± 1.9e-05	1076.08 ± 0.07	1.34248 ± 0.0004	0.665 ± 0.012
313.15 K, m1 = 1.9	0.00184 ± 2.2e-05	1095.07 ± 0.09	1.345 ± 0.0004	0.673 ± 0.008
313.15 K, m1 = 2.28	0.00208 ± 2.5e-05	1113.37 ± 0.13	1.34761 ± 0.0004	0.682 ± 0.009
313.15 K, m1 = 2.66	0.00227 ± 2.7e-05	1131.04 ± 0.1	1.34991 ± 0.0004	0.693 ± 0.01
313.15 K, m1 = 3.04	0.00248 ± 3e-05	1148.05 ± 0.13	1.35227 ± 0.0004	0.703 ± 0.008
313.15 K, m1 = 3.42	0.00263 ± 3.2e-05	1164.53 ± 0.15	1.35443 ± 0.0004	0.716 ± 0.01
313.15 K, m1 = 3.8	0.00278 ± 3.3e-05	1180.49 ± 0.12	1.35643 ± 0.0004	0.733 ± 0.014
313.15 K, m1 = 4.581	0.00308 ± 3.7e-05	1211.11 ± 0.15	1.36051 ± 0.00041	0.76 ± 0.008
313.15 K, m1 = 5.341	0.0033 ± 4e-05	1239.46 ± 0.18	1.36426 ± 0.00041	0.803 ± 0.009
313.15 K, m1 = 6.273	0.00357 ± 4.3e-05	1271.3 ± 0.2	1.36812 ± 0.00041	0.844 ± 0.011
